Laboratory results from paper PMC4111571 (Pharmaceutical research, 2012).

Test: Caco-2 cell monolayer bidirectional transport study
Type: in vitro ADME
Conditions: human, Caco-2, pH 7.4

Papp A→B at 2 h, 100 µM: 416 ± 24 nm/s | Papp B→A at 2 h, 100 µM: 213 ± 7 nm/s | efflux ratio at 2 h, 100 µM: 0.51
Compound: CC(C)NCC(O)COc1cccc2ccccc12 (stereo not drawn) [Propranolol]
